In PMC5729429, “Gimatecan exerts potent antitumor activity against gastric cancer in vitro and in vivo via AKT and MAPK signaling pathways” (Journal of Translational Medicine, 2017):
Structures can show the parent of a compound that is named as a salt.

Legend:
SNU-1 cells = test: Annexin V-PE/7-AAD apoptosis assay (flow cytometry), SNU-1; type: cell-based, human; settings: 24 h
Method: (§1) Apoptosis was measured by staining with phycoerythrin (PE)-annexin V and 7-amino-actinomycin (7-AAD) (BD Biosciences, Erembodegem, Belgium) for 15 min at room temperature in the dark, followed by flow cytometry (BD Biosciences) within 1 h. Apoptosis was analyzed with FlowJo 7.6 software (FlowJo, LLC, Ashland, Oregon).
(§2) Cells were treated with gimatecan (0–1 µM) and irinotecan (0–1 µM) for 24 h and stained with Annexin V-PE/7-AAD. Sums of percentages of early apoptosis (Q3) and late apoptosis (Q2) were calculated as the total apoptosis ratios. c, d Pro- and anti-apoptotic proteins including Bcl-2, Bak, PARP and cleaved PARP were assessed by western-blotting in SNU-1 and NCI-N87 cells. Western-blotting bands were quantified and normalized by ImageJ. […] They are left out because no substance is present, and they are also barely readable.

NCI-N87 cells = test: Annexin V-PE/7-AAD apoptosis assay (flow cytometry), NCI-N87; type: cell-based, human; settings: 1000 nM, 24 h
Method: as §1, §2

[1] = tested on: normal immortalized gastric epithelial cell line; test: Growth inhibition of normal gastric epithelial cells; type: cell-based; settings: data not shown
ABCG2 = tested on: ABCG2; parameters: method as in earlier work; settings: ref 32 (Marchetti et al., 2007); cited from earlier work

SMILES | proportion of apoptotic cells (SNU-1 cells; SNU-1, 1000 nM) [%] | proportion of apoptotic cells (NCI-N87 cells) [%] | growth inhibition in normal cells [1] | resistance resulting from ABCG2 expression (ABCG2) | apoptosis induced compared with controls (SNU-1 cells; 0–1 µM, stated generally for the GC cell lines tested)
CC[C@@]1(O)C(=O)OCc2c1cc1n(c2=O)Cc2c-1nc1ccccc1c2/C=N/OC(C)(C)C [Gimatecan, 7-t-butoxyiminomethylcamptothecin] | 14.38 ± 2.11 | 12.29 ± 2.24 | weak growth inhibition | eight to tenfold | –
CCc1c2c(nc3ccc(OC(=O)N4CCC(N5CCCCC5)CC4)cc13)-c1cc3c(c(=O)n1C2)COC(=O)[C@]3(O)CC [Irinotecan, irinotecan hydrochloride] | – | – | – | – | not obvious
